# Measurements as given in US20250205152A1, “METHOD OF PREVENTING AGE-RELATED MACULAR DEGENERATION BY ADMINISTERING AN OCULAR DRUG DELIVERY INSERT” (EYEPOINT PHARMACEUTICALS, INC., priority 2022, published 2025).
# “Also recorded” adds a separate entry of the source.
# How the values were obtained:
# [1] = Solubility of vorolanib in water; assay type: physicochemical
# Description: Vorolanib has the chemical designation (S,Z)—N-(1-(Dimethylcarbamoyl) pyrrolidin-3-yl)-5-((5-fluoro-2-oxoindolin-3-ylidene)methyl)-2,4-dimethyl-1H-pyrrole-3-carboxamide. Synonyms include the term “X-82”. The molecular formula is C23H26FN5O3. The solubility of vorolanib in water is less than 10 μg/mL.
# [2] = tested on: sodium Hyaluronate-induced retinal detachment; test: Sodium hyaluronate-induced retinal detachment model: OKT and OCT; assay type: in vivo, C57Bl/6 mice
# Description: (§1) An 18-day study was conducted in age-matched and experimentally naive C57Bl/6 mice. Prior to experiments, the mice were randomly distributed into two separate study arms, and identification numbers were assigned to individual mice. Prior to dosing initiation, baseline experiments were conducted to measure visual acuity and contrast vision by optokinetic tracking (OKT), and to measure retinal and outer nuclear layer (ONL) thickness in images obtained by optical coherence tomography (OCT). On Day 1, and continuing until Day 18, the mice received once a day oral administration of vehicle (Arm 1), or Vorolanib at 40 mg/kg (Arm 2). On Day 2, bilateral subretinal injection of sodium hyaluronate was performed to induce retinal detachment. On Day 16, visual acuity and contrast vision thresholds were measured, and on Day 17, OCT was performed to measure retinal and ONL thickness. On Day 18, terminal collections were performed at either 30 minutes, or 4 hours, post-administration, with whole blood collected and processed to plasma, left eyes collected and fixed for histology, and right eyes collected and dissected to yield cornea, lens, retinal pigment epithelium (RPE)/choroid/sclera, and retina, separately.
# Mouse eyes were dilated and the animals were anesthetized according to standard operating procedures. The mouse was placed on a regulated heating pad, and the posterior pole was visualized under magnification. A 12.7 mm 30-gauge insulin syringe was used to puncture the cornea just above the corneal limbus, avoiding any contact with the sclera and lens. The transvitreal subretinal injections were performed using a 10 μL Hamilton syringe with a 33-gauge blunt needle inserted through the corneal puncture across the vitreous, with the shaft aimed at the back of the eyecup, avoiding any trauma to the lens or iris. A total volume of 1 μL was delivered.
# OKT is performed using an OptoMotry designed for rodent use (Cerebral Mechanics Inc.). In this non-invasive assessment, mice are placed onto a platform surrounded by 4 LCD screens which reside within a light-protected box. Visual stimuli are then presented to the mouse via the LCD screens and a masked observer visualizes and scores optokinetic tracking reflexes from a digital camcorder which is mounted on the top of the box. The monitors display continuous vertical sine wave gratings rotating across the monitors at 12 degrees/s which appear to the animal as a virtual three-dimensional rotating […]. The rotation of the virtual cylinder is constantly centered at the animal's viewing position to ensure a consistent viewing distance. Tracking movements are identified as slow, steady head movements in the direction of the rotating grating. For measurements of spatial frequency threshold, mice were tested at a range of spatial frequencies from 0.064 to 0.464 cycles/degree. […] All measurements of contrast threshold were performed at a spatial frequency threshold of 0.064 cycles/degree. The contrast threshold is calculated as a reciprocal of the Michelson contrast from the screen's luminance (maximum−minimum)/(maximum+minimum). The reciprocal of the contrast threshold is plotted.
# Animals were anesthetized and eyes were dilated according to standard procedures. Following sedation and dilation, animals were secured on a platform and presented to a Micron
# IV OCT module (Phoenix Research Inc.) for imaging. The total retina thickness and outer nuclear layer thickness were measured from vertical and horizontal scans within each eye, and the data was plotted as the average retinal thickness across the scans.
# Graphs were generated using GraphPad Prism (v. 9.4.0). […]
# [3] = Plasma and ocular tissue levels after oral vorolanib in the retinal detachment study; assay type: in vivo, C57Bl/6 mice; settings: 40 mg/kg oral once a day
# Description: as §1
# (§2) Day 18 at 30 min±5 min following oral administration of vehicle or test agent: Terminal plasma collection; Enucleation of eyes with left eyes fixed in 10% NBF and right eyes dissected to yield cornea, lens, RPE/choroid/sclera, and retina, with tissue snap frozen in liquid N2 with tube and tissue weights recorded (n=4 mice/arm).
# as §2, with “4 hr±15” for “30 min±5”
# Oral gavage was performed on conscious mice by trained personnel; no anesthesia was required. […]
# [4] = tested on: Swine (Mini-pig) Model of Laser-Induced Choroidal Neovascularization (CNV); test: Laser-induced choroidal neovascularization model, fluorescein angiography (CTLF); assay type: in vivo; settings: Day 0
# Description: Safety and efficacy of a vorolanib insert were evaluated in a Swine (Mini-pig) Model of Laser-Induced Choroidal Neovascularization (CNV). The primary objective of this study was to evaluate the long-term safety and inhibition of vascular permeability and neovascularization in a laser-induced model of choroidal neovascularization (CNV) using a vorolanib insert in swine.
# On the day of lasering (Groups 1-4) animals were treated with an 810 nm diode laser delivered through an indirect ophthalmoscope. Approximately 6 single laser spots were placed between retinal veins. Both eyes underwent laser treatment according to the schedule in the table above.
# On the day of intravitreal injections animals were anesthetized and the eyes were aseptically prepared. […] Animals were allowed to recover normally from the procedure. The pigs were given a topical drop of antibiotic ophthalmic solution 4-6 hours later, and then BID for 2 additional days with at least 6 hours between doses. Animals were dosed on either Day 0 immediately following laser CNV induction or 7 days prior to laser CNV induction according to the schedule in the table above.
# Flourescein Angiography was done in both eyes in anesthetized animals at the timepoints as indicated in the experimental design table.
# [5] = 40 mg/kg oral once a day, baseline to Day 17, OCT
Compound,solubility [1],"overall effect in retinal detachment model ([2]; 40 mg/kg once a day for 18 consecutive days, compared to vehicle)","mean spatial frequency threshold (SFT) ([2]; 40 mg/kg oral once a day, Day 16)","contrast thresholds compared to vehicle ([2]; 40 mg/kg oral once a day, Day 16, P=0.0009)","loss of contrast vision, baseline to Day 16 ([2]; 40 mg/kg oral once a day, OKT)","loss of visual acuity, baseline to Day 16 ([2]; 40 mg/kg oral once a day, OKT)","loss of ONL thickness in horizontal scans [2, 5]","loss of ONL thickness in vertical scans [2, 5]","total retinal thickness across the treatment arms ([2]; 40 mg/kg oral vs vehicle, OCT)",difference in mean SFT versus vehicle ([2]; Day 16),mean retinal thickness across vertical and horizontal scans ([2]; across both arms and timepoints),presence in plasma ([3]; 18 consecutive days),tissue distribution ([3]; 18 days),detection in ocular tissues ([3]; up to 4 hours following the terminal dose),efficacy in laser CNV model ([4]; 2 mg IVT),"Corrected Total Lesion Fluorescence (CTLF) value, change from Day 7 to Day 28 ([4]; Group 1: 2 mg, 50 μL/eye IVT)"
"Cc1[nH]c(/C=C2\C(=O)Nc3ccc(F)cc32)c(C)c1C(=O)N[C@H]1CCN(C(=O)N(C)C)C1 [vorolanib, (S,Z)—N-(1-(Dimethylcarbamoyl)pyrrolidin-3-yl)-5-((5-fluoro-2-oxoindolin-3-ylidene)methyl)-2,4-dimethyl-1H-pyrrole-3-carboxamide]",< 10 µg/mL,significant neuroprotective effect,0.306 cycles/degree,significantly higher; also recorded: statistically significant improvement,41%,23%,no loss,1%,no statistically significant differences,not statistically significant,222-229 μm,present in the plasma up to 4 hours,primarily in RPE/Choroid/Sclera tissue at levels that exceed plasma concentrations,"within detectable range in all ocular tissues tested, except lens tissue",–,–
"aflibercept: VEGF inhibitor (Regeneron), intravitreal injection, positive control",–,–,–,–,–,–,–,–,–,–,–,–,–,–,normal amounts of efficacy,largest reduction
